Measurements from US20060084682A1, “Thrombopoietin mimetics” (priority 2002, published 2006).

Biological target: T1, human Tpo-R (Homo sapiens, UniProt P40238)
T1 construct: expressed in transfected cells; host or cells: murine BaF3 cell line
T1 sequence (P40238 26-635): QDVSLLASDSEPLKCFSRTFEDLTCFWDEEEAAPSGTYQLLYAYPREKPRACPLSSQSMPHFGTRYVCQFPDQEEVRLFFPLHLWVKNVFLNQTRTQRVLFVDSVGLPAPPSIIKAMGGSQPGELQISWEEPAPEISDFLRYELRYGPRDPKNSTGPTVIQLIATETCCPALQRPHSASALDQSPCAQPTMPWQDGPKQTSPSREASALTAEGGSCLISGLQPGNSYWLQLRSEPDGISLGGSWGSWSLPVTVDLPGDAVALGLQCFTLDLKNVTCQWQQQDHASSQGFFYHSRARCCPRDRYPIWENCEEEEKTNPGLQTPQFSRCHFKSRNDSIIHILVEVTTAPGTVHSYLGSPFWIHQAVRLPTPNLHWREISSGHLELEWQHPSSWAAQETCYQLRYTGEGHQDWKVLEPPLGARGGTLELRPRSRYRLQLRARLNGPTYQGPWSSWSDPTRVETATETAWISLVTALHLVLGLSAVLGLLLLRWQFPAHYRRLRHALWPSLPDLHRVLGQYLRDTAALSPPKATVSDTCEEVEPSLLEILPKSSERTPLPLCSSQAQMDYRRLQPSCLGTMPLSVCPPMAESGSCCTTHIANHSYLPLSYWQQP
Assay: in vitro proliferation assay using the murine BaF3 cell line transfected with human Tpo-R
Type: cell-based
Details: at a concentration of 2 uM
Protocol: Compounds of the present invention were tested for potency as mimetics of TPO in an in vitro proliferation assay using the murine BaF3 cell line transfected with human Tpo-R. Survival and growth is dependent on the presence of TPO.

## O=C1NC(=S)SC1=Cc1ccc2[nH]c(-c3cccc(-c4ccc(Cl)c(Cl)c4)n3)nc2c1 [Example 1, 5-{2-[6-(3,4-dichloro-phenyl)-pyridin-2-yl]-1H-benzoimidazol-5-ylmethylene}-2-thioxo-thiozolidin-4-one]
  activation, % of control (control is the maximal response to TPO), proliferation of BaF3 cells: about 20 % of control
